Measurements published in ChEMBL document CHEMBL1159004, “Four new antibacterial sesterterpenes from a marine sponge of the genus Luffariella” (1992).

What was measured:
Assay type in all cases: functional
Micrococcus luteus = test: Antibacterial activity against Micrococcus luteus ATCC 9341 by TLC bioautographic test
Bacillus subtilis = test: Antibacterial activity against Bacillus subtilis ATCC […] by TLC bioautographic test
Escherichia coli = test: Antibacterial activity against Escherichia coli ATCC 25922 by TLC bioautographic test

## CC(=O)OC/C(=C\C[C@H]1OC(=O)CC1CO)CC/C=C(\C)CCC1=C(C)CCCC1(C)C (stereo partly drawn)
Micrococcus luteus
  Activity: 3 µg
Bacillus subtilis
  Activity: 11 µg

## CC1=C(CC/C(C)=C/CC/C(=C/C[C@H]2OC(=O)CC2CO)CO)C(C)(C)CCC1 (stereo partly drawn)
Micrococcus luteus
  Activity: 5 µg
Escherichia coli
  Activity: 1 µg

## CC1=C(CC/C(C)=C/CC/C(C=O)=C\C[C@H]2OC(=O)C=C2CO)C(C)(C)CCC1
Micrococcus luteus
  Activity: 4 µg
Bacillus subtilis
  Activity: 4 µg

## CC(=O)OC/C(=C\C[C@H]1OC(=O)C=C1CO)CC/C=C(\C)CCC1=C(C)CCCC1(C)C
Micrococcus luteus
  Activity: 8 µg
Bacillus subtilis
  Activity: 2 µg
